Reference: ChEMBL document CHEMBL5724914, “Linking interpersonal differences in gut microbiota composition and drug biotransformation activity” (2024)

Key:
[1] = human gut metagenome, 24 h, 2 µM
[2] = (§1) The drug is tested on WLS-069 corresponding to human gut metagenome with ENA study accession number: PRJEB37062 and ENA sample accession number: ERS12561748 for biotransformation under anaerobic condition. The drug concentrations were measured over 9 timepoints collected between 0 and 24 hours of incubation by liquid-chromatography-coupled mass spectrometry (LC–MS); conditions: 2 µM
[3] = human gut metagenome, 24 h, 2 µM; remark: listed apart in the source
[4] = as §1, with “WLS-086” for “WLS-069”, “ERS12561752” for “ERS12561748”; conditions: 2 µM
[5] = as §1, with “Z-005” for “WLS-069”, “to” for “to human gut”, “ERS12561805” for “ERS12561748”; conditions: 2 µM
[6] = as §1, with “WLS-082” for “WLS-069”, “ERS12561751” for “ERS12561748”; conditions: 2 µM
[7] = human gut metagenome, 24 h, 2 µM; remark: listed apart in the source
[8] = as §1, with “Z-027” for “WLS-069”, “to” for “to human gut”, “ERS12561826” for “ERS12561748”; conditions: 2 µM
[9] = human gut metagenome, 24 h, 2 µM; remark: listed apart in the source
[10] = as §1, with “Z-024” for “WLS-069”, “pig” for “human”, “ERS12561823” for “ERS12561748”; conditions: 2 µM
[11] = human gut metagenome, 24 h, 2 µM; remark: listed apart in the source
[12] = as §1, with “WLS-010” for “WLS-069”, “ERS12561743” for “ERS12561748”; conditions: 2 µM
[13] = human gut metagenome, 24 h, 2 µM; remark: listed apart in the source
[14] = as §1, with “Z-004” for “WLS-069”, “to” for “to human gut”, “ERS12561804” for “ERS12561748”; conditions: 2 µM
[15] = as §1, with “Z-009” for “WLS-069”, “pig” for “human”, “ERS12561809” for “ERS12561748”; conditions: 2 µM
[16] = as §1, with “Z-022” for “WLS-069”, “mouse” for “human”, “ERS12561821” for “ERS12561748”; conditions: 2 µM
[17] = human gut metagenome, 24 h, 2 µM; remark: listed apart in the source
[18] = as §1, with “Z-026” for “WLS-069”, “to” for “to human gut”, “ERS12561825” for “ERS12561748”; conditions: 2 µM
[19] = human gut metagenome, 24 h, 2 µM; remark: listed apart in the source
[20] = human gut metagenome, 24 h, 2 µM; remark: listed apart in the source
Further: call rule not given here.

Row | Bacterial Biotransformation [1] | Bacterial Biotransformation [2] | Bacterial Biotransformation [3] | Bacterial Biotransformation [4] | Bacterial Biotransformation [5] | Bacterial Biotransformation [6] | Bacterial Biotransformation [7] | Bacterial Biotransformation [8] | Bacterial Biotransformation [9] | Bacterial Biotransformation [10] | Bacterial Biotransformation [11] | Bacterial Biotransformation [12] | Bacterial Biotransformation [13] | Bacterial Biotransformation [14] | Bacterial Biotransformation [15] | Bacterial Biotransformation [16] | Bacterial Biotransformation [17] | Bacterial Biotransformation [18] | Bacterial Biotransformation [19] | Bacterial Biotransformation [20] | Compound
1 | Compound metabolized | Compound metabolized | Compound metabolized | Compound metabolized | Compound metabolized | Compound metabolized | Compound metabolized | Compound metabolized | Compound metabolized | Compound metabolized | Compound metabolized | Compound metabolized | Compound metabolized | Compound metabolized | Compound metabolized | Compound NOT metabolized | Compound metabolized | Compound NOT metabolized | Compound metabolized | Compound metabolized | CCCCCOC(=O)Nc1nc(=O)n([C@@H]2O[C@H](C)[C@@H](O)[C@H]2O)cc1F [CAPECITABINE]
2 | Compound NOT metabolized | Compound metabolized | Compound metabolized | Compound NOT metabolized | Compound NOT metabolized | Compound metabolized | Compound metabolized | Compound NOT metabolized | Compound NOT metabolized | Compound NOT metabolized | Compound NOT metabolized | Compound metabolized | Compound NOT metabolized | Compound NOT metabolized | Compound NOT metabolized | Compound NOT metabolized | Compound metabolized | Compound NOT metabolized | Compound NOT metabolized | Compound metabolized | Cc1ccc(-c2cc(C(F)(F)F)nn2-c2ccc(S(N)(=O)=O)cc2)cc1 [CELECOXIB]
3 | Compound metabolized | Compound metabolized | Compound NOT metabolized | Compound metabolized | Compound NOT metabolized | Compound metabolized | Compound metabolized | Compound NOT metabolized | Compound metabolized | Compound metabolized | Compound NOT metabolized | Compound NOT metabolized | Compound NOT metabolized | Compound NOT metabolized | Compound NOT metabolized | Compound NOT metabolized | Compound metabolized | Compound NOT metabolized | Compound metabolized | Compound metabolized | Clc1ccc(Cn2c(CN3CCCC3)nc3ccccc32)cc1 [CLEMIZOLE]
4 | Compound metabolized | Compound metabolized | Compound metabolized | Compound metabolized | Compound metabolized | Compound metabolized | Compound metabolized | Compound metabolized | Compound metabolized | Compound metabolized | Compound metabolized | Compound metabolized | Compound metabolized | Compound metabolized | Compound metabolized | Compound metabolized | Compound metabolized | Compound metabolized | Compound metabolized | Compound metabolized | CC(=O)OCC(=O)[C@@]12N=C(C)O[C@@H]1C[C@H]1[C@@H]3CCC4=CC(=O)C=C[C@]4(C)[C@H]3[C@@H](O)C[C@@]12C [DEFLAZACORT]

Row | Compound | Bacterial Biotransformation [1] | Bacterial Biotransformation [2] | Bacterial Biotransformation [3] | Bacterial Biotransformation [4] | Bacterial Biotransformation [5] | Bacterial Biotransformation [6] | Bacterial Biotransformation [7] | Bacterial Biotransformation [8] | Bacterial Biotransformation [9] | Bacterial Biotransformation [10] | Bacterial Biotransformation [11] | Bacterial Biotransformation [12] | Bacterial Biotransformation [13] | Bacterial Biotransformation [14] | Bacterial Biotransformation [15] | Bacterial Biotransformation [16] | Bacterial Biotransformation [17] | Bacterial Biotransformation [18] | Bacterial Biotransformation [19] | Bacterial Biotransformation [20]
5 | CN1C(=O)CCS(=O)(=O)C1c1ccc(Cl)cc1 (stereo not given) [CHLORMEZANONE] | Compound NOT metabolized | Compound NOT metabolized | Compound NOT metabolized | Compound metabolized | Compound NOT metabolized | Compound NOT metabolized | Compound metabolized | Compound NOT metabolized | Compound NOT metabolized | Compound NOT metabolized | Compound NOT metabolized | Compound NOT metabolized | Compound NOT metabolized | Compound NOT metabolized | Compound NOT metabolized | Compound NOT metabolized | Compound NOT metabolized | Compound NOT metabolized | Compound NOT metabolized | Compound NOT metabolized
6 | CN1CCN(C2=Nc3cc(Cl)ccc3Nc3ccccc32)CC1 [CLOZAPINE] | Compound metabolized | Compound NOT metabolized | Compound NOT metabolized | Compound metabolized | Compound NOT metabolized | Compound NOT metabolized | Compound metabolized | Compound NOT metabolized | Compound NOT metabolized | Compound NOT metabolized | Compound metabolized | Compound NOT metabolized | Compound NOT metabolized | Compound NOT metabolized | Compound NOT metabolized | Compound NOT metabolized | Compound metabolized | Compound NOT metabolized | Compound NOT metabolized | Compound metabolized
7 | COc1cc2c(c(OC)c1OC)-c1ccc(OC)c(=O)cc1[C@@H](NC(C)=O)CC2 [COLCHICINE] | Compound NOT metabolized | Compound metabolized | Compound metabolized | Compound NOT metabolized | Compound metabolized | Compound metabolized | Compound metabolized | Compound NOT metabolized | Compound NOT metabolized | Compound NOT metabolized | Compound metabolized | Compound metabolized | Compound metabolized | Compound NOT metabolized | Compound metabolized | Compound metabolized | Compound metabolized | Compound NOT metabolized | Compound NOT metabolized | Compound metabolized
